Reference: patent publication US20240300943A1, “NOVEL SALTS OF HETEROCYCLIC COMPOUND AS PROTEIN KINASE INHIBITOR AND USES THEREOF” (HK INNO.N CORPORATION, priority 2021, published 2024)

How the values were obtained:
[1] = system: DNBS-induced animal model (IBD rat model); assay: DNBS-induced colitis model; type: in vivo; settings: oral, once a day, four weeks, FIG. 26
Protocol: Before induction of colitis with DNBS every week, experimental animals were fasted for 24 hours. Fasted animals were lightly anesthetized with isoflurane, catheter tubes with a length of 8 cm were inserted into the rat anus, and then colitis was induced by slowly injecting 250 μL of DNBS [15 mg (1st week), 30 mg (2nd week), 45 mg (3rd week) and 60 mg (4th week) in 250 μL of 50% ethanol] solution using a syringe pump at a rate of 100 μL/min. After the injection of the solution, a head-down posture was maintained for one minute so that the solution may spread evenly in the animal's intestines and may not leak out of the body. […]
The large intestine tissue extracted from the sacrificed experimental animals was photographed to measure the length of the large intestine. The length of the large intestine was measured from the taken picture using an image program (Leica Application Suite V4). […] The measured weight and length were used to convert the large intestine ratio (mg/cm) (=large intestine weight (mg)/large intestine length (cm)).
Calprotectin & c-reactive protein (CRP) and IFN-γ from serum collected at autopsy were analyzed by ELISA. […]

[2] = system: anti-CD3 and anti-CD28-activated PBMC of patients with atopic dermatitis; assay: IL-13, IL-10 and TNF-α secretion in activated PBMC of atopic patients; type: cell-based, human; settings: 100 nM and 1,000 nM, 24 hours, FIG. 9
Protocol: 50 μL of DNase I (2000 unit/mL) was added to 50 mL of cell culture medium and mixed. (Since enzyme and cells were used, the medium was heated in a 37° C. water bath before use.) In addition, PMBC of atopic patients was rapidly dissolved in a 37° C. water bath.
PMBC was slowly flowed into the prepared medium, and reacted at 37° C. for five minutes. Centrifugation was performed using a centrifuge at 200 rpm for 15 minutes, after which supernatants were removed, suspended in 1 mL of cell culture medium, and counted.
Cells were diluted in cell culture medium and seeded in a 96-well plate to reach 2×10^5 cells/100 μL/well.
50 μL of PBMC activation medium (0.5 μg/ml CD3 antibody, 5 μg/ml CD28 antibody) was added to every well except the negative control well. (50 μL of cell culture medium was added to each negative control well.)
50 μL of the test material was added to each well according to each concentration. (final concentration of 1 nM, 10 nM, 100 nM, 1,000 nM, 50 μL of cell culture medium was added to each negative control well.)
After incubation in a 5% CO2 incubator at 37° C. for 24 hours, the plates were centrifuged at 200 rpm for 15 minutes as they were, and 150 μL of the suspension was taken, placed in a 96-well round bottom plate, and stored in a deep freezer at minus 80° C.
After the culture supernatant samples were dissolved, ELISA was performed according to the data sheet protocol of ELISA kit.

[3] = system: JAK2, Tyk2; assay: Human whole blood assay, JAK2, Tyk2; type: cell-based; settings: cytokine-induced STAT phosphorylation
Protocol: A stock solution of Compound 1 obtained according to Preparation Example 1 was diluted with distilled water and then serially diluted at ⅕ with 4% DMSO. 5 μL of test material was added to 100 μL of whole blood collected using a 1.7 mL eppendorf tube, mixed, and incubated at 37° C. for 45 minutes.
IL-6 (10 μg/ml) was diluted with 0.1% BSA/DW to reach 1 μg/mL each. 5 μL of IL-6 was added (at a final concentration of 50 ng/mL) and incubated at 37° C. for 15 minutes. At this time, 5 μL of DPBS was added as a non-stimulated control group. Lyse/fix buffer 5× was diluted 1× in distilled water and used. […]
For double staining of CD4 and pSTATI, anti-[…] and anti-pSTATI were mixed in a staining buffer and added to each of the samples. […] On the next day, the results were analyzed using FACSCanto II. […]
The numerical values analyzed by FlowJo were calculated to obtain IC50 values using GraphPad Prism 5 software (product name).
No treatment response (NTR) was set as a reference, and the degree of the phosphorylation of STAT induced by cytokines was converted into a relative ratio (% control group). A dose-response plot was obtained for each concentration-dependent activity of each test material using GraphPad Prism (version 5.0) and ICso values were calculated.

[4] = Measurement of water solubility; type: physicochemical; settings: saturated solution shaken at room temperature for 24 hours
Protocol: A liquid phase was taken out of the solution and filtered using a 0.22 μm PVDF filter. The filtered liquid phase was diluted 10-fold for LC analysis.
LC analysis was performed by the following method.

[5] = Physical stability evaluation under stress conditions; type: physicochemical
Protocol: In order to evaluate physical stability, samples were packaged in the form of ((LPDE+N2)+silica gel 1 g+LDPE)+Al-Bag, and stored under stress conditions (60° C.±2° C./80% RH±5%) for 2/4 weeks before evaluation.
In table 2, initial is a result measured after preparation of salts, and S2W and S4W are results measured after two and four weeks while being exposed to stress conditions, respectively.

## C[C@@H]1CN(C(=O)CC#N)CC=C1c1cc(NC(=O)C2CC2)nc2[nH]ccc12 [Compound 1, (S)—N-(4-(1-(2-cyanoacetyl)-3-methyl-1,2,3,6-tetrahydropyridin-4-yl)-1H-pyrrolo[2,3-b]pyridin-6-yl)cyclopropanecarboxamide]
[1]
  Efficacy in IBD rat model: exhibits efficacy in an IBD rat model
  Level of proinflammatory cytokines compared to the control group (vehicle): significantly lower level of proinflammatory cytokines
[2]
  IL-10 secretion: significantly reduced
  IL-13 secretion: significantly reduced
  TNF-α secretion: significantly reduced
[3]
  IC50: 3.64 µM

## C[C@@H]1CN(C(=O)CC#N)CC=C1c1cc(NC(=O)C2CC2)nc2[nH]ccc12 [Example 3, (S)—N-(4-(1-(2-cyanoacetyl)-3-methyl-1,2,3,6-tetrahydropyridin-4-yl)-1H-pyrrolo[2,3-b]pyridin-6-yl)cyclopropanecarboxamide]
[4]
  Water solubility: 3900 µg/mL
[5]; Initial
  C.I quantitative: 24.0%
  Content (anhydride, as anhydride): 98.9%
  Moisture: 0.2%
  Purity: Individual related material: 0.08%
  Purity: Total related material: 0.41%
[5]; S2W: 2 weeks at 60° C./80% RH
  C.I quantitative: 24.1%
  Content (anhydride, as anhydride): 99.9%
  Moisture: 0.2%
  Purity: Individual related material: 0.08%
  Purity: Total related material: 0.43%
[5]; S4W: 4 weeks at 60° C./80% RH
  C.I quantitative: 23.8%
  Content (anhydride, as anhydride): 99.9%
  Moisture: 0.2%
  Purity: Individual related material: 0.11%
  Purity: Total related material: 0.53%
